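Step 1: Grow cells in 96-well plates. Step 2: Expose to compound for 48 hours at 5 concentrations. Step 3: Interpolate endpoints linearly; if unreached, use highest concentration. The concentration for 50% growth inhibition is given as GI50.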 Activity calls are given as the source filed them. Rule as the data show it: active = GI50 up to about 1.1 µM and inactive = higher.
Legend:
Assay in all cases: NCI anticancer screen, dose series, 48 h
NCI/ADR-RES = test system: NCI/ADR-RES
DU-145 = test system: DU-145
A549 = test system: A549
LOX IMVI = test system: LOX IMVI
SK-OV-3 = test system: SK-OV-3
Malme-3M = test system: Malme-3M
M14 = test system: M14
SR = test system: SR
CAKI-1 = test system: CAKI-1
SF-268 = test system: SF-268
OVCAR-8 = test system: OVCAR-8
OVCAR-5 = test system: OVCAR-5
SF-295 = test system: SF-295
SF-539 = test system: SF-539
CCRF-CEM = test system: CCRF-CEM
HCC 2998 = test system: HCC 2998
NCI-H460 = test system: NCI-H460
SW-620 = test system: SW-620
786-0 = test system: 786-0
MDA-MB-231 = test system: MDA-MB-231
MDA-N = test system: MDA-N
BT-549 = test system: BT-549
SK-MEL-2 = test system: SK-MEL-2
KM12 = test system: KM12
MOLT-4 = test system: MOLT-4
NCI-H226 = test system: NCI-H226
HCT-15 = test system: HCT-15
NCI-H522 = test system: NCI-H522
UO-31 = test system: UO-31
HOP-62 = test system: HOP-62
HCT-116 = test system: HCT-116
COLO 205 = test system: COLO 205
T47D = test system: T47D
U-251 = test system: U-251
SN12C = test system: SN12C
TK-10 = test system: TK-10
PC-3 = test system: PC-3
EKVX = test system: EKVX
RPMI-8226 = test system: RPMI-8226
UACC-62 = test system: UACC-62
K562 = test system: K562
SK-MEL-28 = test system: SK-MEL-28
Hs-578T = test system: Hs-578T
OVCAR-4 = test system: OVCAR-4
HT-29 = test system: HT-29
SK-MEL-5 = test system: SK-MEL-5
HL-60 = test system: HL-60
NCI-H23 = test system: NCI-H23
RXF 393 = test system: RXF 393
MCF7 = test system: MCF7
UACC-257 = test system: UACC-257
SNB-75 = test system: SNB-75
IGROV-1 = test system: IGROV-1
ACHN = test system: ACHN
SNB-19 = test system: SNB-19
HOP-92 = test system: HOP-92
OVCAR-3 = test system: OVCAR-3
MDA-MB-435 = test system: MDA-MB-435
A498 = test system: A498

Compound: O=C1CCCc2cc3c(cc21)CCC3C(=O)O (stereo unspecified)
- GI50 (NCI/ADR-RES): > 100 µM (inactive)
- GI50 (DU-145): > 100 µM (inactive)
- GI50 (A549): > 100 µM (inactive)
- GI50 (LOX IMVI): > 100 µM (inactive)
- GI50 (SK-OV-3): > 100 µM (inactive)
- GI50 (Malme-3M): > 100 µM (inactive)
- GI50 (M14): > 100 µM (inactive)
- GI50 (SR): > 100 µM (inactive)
- GI50 (CAKI-1): > 100 µM (inactive)
- GI50 (SF-268): > 100 µM (inactive)
- GI50 (OVCAR-8): > 100 µM (inactive)
- GI50 (OVCAR-5): > 100 µM (inactive)
- GI50 (SF-295): > 100 µM (inactive)
- GI50 (SF-539): > 100 µM (inactive)
- GI50 (CCRF-CEM): > 100 µM (inactive)
- GI50 (HCC 2998): > 100 µM (inactive)
- GI50 (NCI-H460): > 100 µM (inactive)
- GI50 (SW-620): > 100 µM (inactive)
- GI50 (786-0): > 100 µM (inactive)
- GI50 (MDA-MB-231): > 100 µM (inactive)
- GI50 (MDA-N): > 100 µM (inactive)
- GI50 (BT-549): > 100 µM (inactive)
- GI50 (SK-MEL-2): > 100 µM (inactive)
- GI50 (KM12): > 100 µM (inactive)
- GI50 (MOLT-4): > 100 µM (inactive)
- GI50 (NCI-H226): > 100 µM (inactive)
- GI50 (HCT-15): > 100 µM
- GI50 (NCI-H522): > 100 µM (inactive)
- GI50 (UO-31): > 100 µM (inactive)
- GI50 (HOP-62): > 100 µM (inactive)
- GI50 (HCT-116): > 100 µM (inactive)
- GI50 (COLO 205): > 100 µM (inactive)
- GI50 (T47D): > 100 µM (inactive)
- GI50 (U-251): > 100 µM (inactive)
- GI50 (SN12C): > 100 µM (inactive)
- GI50 (TK-10): > 100 µM (inactive)
- GI50 (PC-3): > 100 µM (inactive)
- GI50 (EKVX): > 100 µM (inactive)
- GI50 (RPMI-8226): > 100 µM (inactive)
- GI50 (UACC-62): > 100 µM (inactive)
- GI50 (K562): > 100 µM (inactive)
- GI50 (SK-MEL-28): > 100 µM (inactive)
- GI50 (Hs-578T): > 100 µM (inactive)
- GI50 (OVCAR-4): > 100 µM (inactive)
- GI50 (HT-29): > 100 µM (inactive)
- GI50 (SK-MEL-5): > 100 µM (inactive)
- GI50 (HL-60): > 100 µM (inactive)
- GI50 (NCI-H23): > 100 µM (inactive)
- GI50 (RXF 393): > 100 µM (inactive)
- GI50 (MCF7): > 100 µM (inactive)
- GI50 (UACC-257): > 100 µM (inactive)
- GI50 (SNB-75): > 100 µM (inactive)
- GI50 (IGROV-1): > 100 µM (inactive)
- GI50 (ACHN): > 100 µM (inactive)
- GI50 (SNB-19): > 100 µM (inactive)

Compound: COc1c(-c2nc3ccc(N4CCN(C)CC4)nc3[nH]2)cc(OC)c2c1nc(COC(C)=O)n2C
- GI50 (NCI/ADR-RES): > 100 µM (inactive)
- GI50 (DU-145): 22.6 µM (inactive)
- GI50 (A549): > 100 µM (inactive)
- GI50 (LOX IMVI): > 100 µM (inactive)
- GI50 (SK-OV-3): > 100 µM (inactive)
- GI50 (Malme-3M): > 100 µM (inactive)
- GI50 (M14): > 100 µM (inactive)
- GI50 (CAKI-1): > 100 µM (inactive)
- GI50 (HOP-92): > 100 µM (inactive)
- GI50 (SF-268): > 100 µM (inactive)
- GI50 (OVCAR-8): > 100 µM (inactive)
- GI50 (OVCAR-5): > 100 µM (inactive)
- GI50 (SF-295): > 100 µM (inactive)
- GI50 (786-0): > 100 µM (inactive)
- GI50 (MDA-MB-231): 51.3 µM (inactive)
- GI50 (MDA-N): > 100 µM (inactive)
- GI50 (BT-549): > 100 µM (inactive)
- GI50 (SK-MEL-2): 33 µM (inactive)
- GI50 (KM12): 39.4 µM (inactive)
- GI50 (MOLT-4): > 100 µM (inactive)
- GI50 (NCI-H226): > 100 µM (inactive)
- GI50 (HCT-15): > 100 µM
- GI50 (NCI-H522): > 100 µM (inactive)
- GI50 (OVCAR-3): > 100 µM (inactive)
- GI50 (UO-31): > 100 µM (inactive)
- GI50 (HOP-62): > 100 µM (inactive)
- GI50 (HCT-116): 86.3 µM (inactive)
- GI50 (COLO 205): 92.7 µM (inactive)
- GI50 (T47D): > 100 µM (inactive)
- GI50 (U-251): 97.1 µM (inactive)
- GI50 (SN12C): > 100 µM (inactive)
- GI50 (MDA-MB-435): 71.8 µM (inactive)
- GI50 (TK-10): < 0.01 µM (active)
- GI50 (PC-3): 94.8 µM (inactive)
- GI50 (EKVX): > 100 µM (inactive)
- GI50 (UACC-62): > 100 µM (inactive)
- GI50 (K562): > 100 µM (inactive)
- GI50 (Hs-578T): > 100 µM (inactive)
- GI50 (OVCAR-4): 89.9 µM (inactive)
- GI50 (HT-29): 56.1 µM (inactive)
- GI50 (SK-MEL-5): > 100 µM (inactive)
- GI50 (NCI-H23): > 100 µM (inactive)
- GI50 (RXF 393): 19 µM (inactive)
- GI50 (MCF7): 65.3 µM (inactive)
- GI50 (A498): > 100 µM (inactive)
- GI50 (UACC-257): 45.3 µM (inactive)
- GI50 (IGROV-1): > 100 µM (inactive)
- GI50 (ACHN): > 100 µM (inactive)
- GI50 (SNB-19): 90.2 µM (inactive)

Compound: CCN(CC)C(=S)SS(=O)(=O)c1ccc(Cl)cc1
- GI50 (NCI/ADR-RES): 35.4 µM (inactive)
- GI50 (DU-145): 27.3 µM (inactive)
- GI50 (A549): 0.484 µM (active)
- GI50 (LOX IMVI): 15.4 µM (inactive)
- GI50 (SK-OV-3): 64.3 µM (inactive)
- GI50 (Malme-3M): 11.7 µM (inactive)
- GI50 (M14): 17.3 µM (inactive)
- GI50 (SR): 0.0796 µM (active)
- GI50 (CAKI-1): 19.8 µM (inactive)
- GI50 (HOP-92): 16.9 µM (inactive)
- GI50 (SF-268): 53 µM (inactive)
- GI50 (OVCAR-8): 16.9 µM (inactive)
- GI50 (OVCAR-5): 44 µM (inactive)
- GI50 (SF-295): 38.7 µM (inactive)
- GI50 (SF-539): 21.6 µM (inactive)
- GI50 (HCC 2998): > 100 µM (inactive)
- GI50 (NCI-H460): 29 µM (inactive)
- GI50 (SW-620): 17.1 µM (inactive)
- GI50 (786-0): 29.9 µM (inactive)
- GI50 (MDA-MB-231): 34.9 µM (inactive)
- GI50 (MDA-N): 36.1 µM (inactive)
- GI50 (BT-549): 34.4 µM (inactive)
- GI50 (SK-MEL-2): 65.6 µM (inactive)
- GI50 (KM12): 11.7 µM (inactive)
- GI50 (NCI-H226): 62.7 µM (inactive)
- GI50 (HCT-15): 31.3 µM
- GI50 (NCI-H522): 0.0319 µM (active)
- GI50 (OVCAR-3): 31.7 µM (inactive)
- GI50 (UO-31): 17.7 µM (inactive)
- GI50 (HOP-62): 22.7 µM (inactive)
- GI50 (HCT-116): 30.3 µM (inactive)
- GI50 (COLO 205): 26.5 µM (inactive)
- GI50 (T47D): 46.2 µM (inactive)
- GI50 (U-251): 15.1 µM (inactive)
- GI50 (SN12C): 20.2 µM (inactive)
- GI50 (MDA-MB-435): 20.5 µM (inactive)
- GI50 (TK-10): 67.8 µM (inactive)
- GI50 (EKVX): > 100 µM (inactive)
- GI50 (RPMI-8226): 15 µM (inactive)
- GI50 (UACC-62): 20.5 µM (inactive)
- GI50 (K562): 14.5 µM (inactive)
- GI50 (SK-MEL-28): 17.9 µM (inactive)
- GI50 (Hs-578T): 43.5 µM (inactive)
- GI50 (OVCAR-4): 45.5 µM (inactive)
- GI50 (HT-29): 17.8 µM (inactive)
- GI50 (SK-MEL-5): 9.04 µM (inactive)
- GI50 (NCI-H23): 38.5 µM (inactive)
- GI50 (RXF 393): 17.6 µM (inactive)
- GI50 (A498): > 100 µM (inactive)
- GI50 (UACC-257): 24.2 µM (inactive)
- GI50 (ACHN): 33.2 µM (inactive)
- GI50 (SNB-19): 38.3 µM (inactive)
